Values of other authors as cited in patent EP0424553A1, “Substituted phenoxy alkanols for treatment of contact hypersensitivity” (priority 1989, dated 1991).

Experiments:
[1] = test system: anaphylactic histamine release; conditions: compared with chlorphenesin
rat mast cells = conditions: mediated by IgE- anti-IgE reaction

Row | Compound | anaphylactic histamine release-preventive effect [1] | degranulation of the rat mast cells (rat mast cells)
1 | chlorphenesin succinate | much superior to chlorphenesin | –
2 | O=C(O)c1cc(=O)c2c(OCC(O)COc3cccc4oc(C(=O)O)cc(=O)c34)cccc2o1 [cromolyn sodium] | – | inhibited
